{"source": "paper PMC6370856", "about": "“Peptidyl prolyl cis/trans isomerase activity on the cell surface correlates with extracellular matrix development” (Communications Biology, 2019)", "key": {"[1]": {"tested_on": "collagen hydrogel (Type I, rat-tail)", "test": "Step-strain rheological measurement, self-healing of collagen hydrogel", "protocol": "Another important feature of the dynamic ECMs is their self-healing property, which can be tested using a step-strain rheological measurement. A strong strain is applied to liquify the materials, and the recovery of storage modulus is followed (self-healing) (Fig. 1b). Collagen hydrogel can only partially recover its storage modulus after the first cycle. The rate and extent of recovery were unchanged over the following cycles.\n(§1) To minimize sample evaporation at 37 °C, a tissue paper wet in HEPEs buffer (10 mM, pH 7.8) was placed inside the H-PTD chamber to increase the humidity. […] The cone and plate were treated with plasma for 5 min to increase the hydrophilicity of the metal surface."}, "fibrin hydrogel": {"tested_on": "fibrin hydrogel", "test": "Stiffness (storage modulus) of fibrin gel by rheometer", "conditions": "for Storage Modulus Mean: fibrin gel", "protocol": "as §1\nFibrin gel: Fibrinogen (Shanghai Laishi Xuezhipin Limited Company) was dissolved in PBS with a concentration of 22.2 mg mL^−1 overnight at room temperature with gentle shaking and aliquoted in protein low-binding tubes (45 µL per tube). […] Fifty microliters of thrombin (4 EU mL^−1 in PBS with 1.8 mM CaCl2) was added and pipetted up and down ten times. Then, it was transferred to the rheometer plate for measurement. […] For each condition, two independent experiments were performed (Fig. 1a and Supplementary Fig. 1)."}}}
{"substance": "CypA: recombinant cyclophilin A, a PPIase, expressed in E. coli", "values": [{"measurement": "stiffness and extent of recovery in the self-healing process of collagen hydrogel", "setting": "[1]", "result": "remarkably enhanced"}, {"measurement": "effect on storage modulus of fibrin hydrogel", "setting": "fibrin hydrogel; 1 µM CypA", "result": "remarkably enhanced"}, {"measurement": "Storage Modulus Mean", "setting": "fibrin hydrogel; 1 micromolar CypA, 3 min", "result": 56.652, "unit": "Pa"}, {"measurement": "Storage Modulus Mean", "setting": "fibrin hydrogel; 1 micromolar CypA, 3.5 min", "result": 58.3965, "unit": "Pa"}, {"measurement": "Storage Modulus Mean", "setting": "fibrin hydrogel; 1 micromolar CypA, 4 min", "result": 59.006, "unit": "Pa"}, {"measurement": "Storage Modulus Mean", "setting": "fibrin hydrogel; 1 micromolar CypA, 4.5 min", "result": 60.5775, "unit": "Pa"}, {"measurement": "Storage Modulus Mean", "setting": "fibrin hydrogel; 1 micromolar CypA, 5 min", "result": 62.605, "unit": "Pa"}, {"measurement": "Storage Modulus Mean", "setting": "fibrin hydrogel; 1 micromolar CypA, 6 min", "result": 64.745, "unit": "Pa"}, {"measurement": "Storage Modulus Mean", "setting": "fibrin hydrogel; 1 micromolar CypA, 6.5 min", "result": 65.763, "unit": "Pa"}, {"measurement": "Storage Modulus Mean", "setting": "fibrin hydrogel; 1 micromolar CypA, 7 min", "result": 66.7405, "unit": "Pa"}, {"measurement": "Storage Modulus Mean", "setting": "fibrin hydrogel; 1 micromolar CypA, 7.5 min", "result": 67.652, "unit": "Pa"}, {"measurement": "Storage Modulus Mean", "setting": "fibrin hydrogel; 1 micromolar CypA, 8 min", "result": 68.8195, "unit": "Pa"}, {"measurement": "Storage Modulus Mean", "setting": "fibrin hydrogel; 1 micromolar CypA, 8.5 min", "result": 69.705, "unit": "Pa"}, {"measurement": "Storage Modulus Mean", "setting": "fibrin hydrogel; 1 micromolar CypA, 9 min", "result": 70.143, "unit": "Pa"}, {"measurement": "Storage Modulus Mean", "setting": "fibrin hydrogel; 1 micromolar CypA, 9.5 min", "result": 71.2125, "unit": "Pa"}, {"measurement": "Storage Modulus Mean", "setting": "fibrin hydrogel; 1 micromolar CypA, 10 min", "result": 72.402, "unit": "Pa"}, {"measurement": "Storage Modulus Mean", "setting": "fibrin hydrogel; 1 micromolar CypA, 11 min", "result": 74.113, "unit": "Pa"}, {"measurement": "Storage Modulus Mean", "setting": "fibrin hydrogel; 1 micromolar CypA, 12 min", "result": 75.428, "unit": "Pa"}, {"measurement": "Storage Modulus Mean", "setting": "fibrin hydrogel; 1 micromolar CypA, 12.5 min", "result": 75.9135, "unit": "Pa"}, {"measurement": "Storage Modulus Mean", "setting": "fibrin hydrogel; 1 micromolar CypA, 13 min", "result": 76.613, "unit": "Pa"}, {"measurement": "Storage Modulus Mean", "setting": "fibrin hydrogel; 1 micromolar CypA, 14 min", "result": 77.9915, "unit": "Pa"}, {"measurement": "Storage Modulus Mean", "setting": "fibrin hydrogel; 1 micromolar CypA, 15 min", "result": 78.877, "unit": "Pa"}, {"measurement": "Storage Modulus Mean", "setting": "fibrin hydrogel; 3 micromolar CypA, 3 min", "result": 56.9022, "unit": "Pa"}, {"measurement": "Storage Modulus Mean", "setting": "fibrin hydrogel; 3 micromolar CypA, 3.5 min", "result": 58.8285, "unit": "Pa"}, {"measurement": "Storage Modulus Mean", "setting": "fibrin hydrogel; 3 micromolar CypA, 4 min", "result": 60.4529, "unit": "Pa"}, {"measurement": "Storage Modulus Mean", "setting": "fibrin hydrogel; 3 micromolar CypA, 5 min", "result": 63.4816, "unit": "Pa"}, {"measurement": "Storage Modulus Mean", "setting": "fibrin hydrogel; 3 micromolar CypA, 6 min", "result": 65.1141, "unit": "Pa"}, {"measurement": "Storage Modulus Mean", "setting": "fibrin hydrogel; 3 micromolar CypA, 6.5 min", "result": 66.9921, "unit": "Pa"}, {"measurement": "Storage Modulus Mean", "setting": "fibrin hydrogel; 3 micromolar CypA, 7 min", "result": 68.0463, "unit": "Pa"}, {"measurement": "Storage Modulus Mean", "setting": "fibrin hydrogel; 3 micromolar CypA, 7.5 min", "result": 69.6441, "unit": "Pa"}, {"measurement": "Storage Modulus Mean", "setting": "fibrin hydrogel; 3 micromolar CypA, 8 min", "result": 70.5045, "unit": "Pa"}, {"measurement": "Storage Modulus Mean", "setting": "fibrin hydrogel; 3 micromolar CypA, 8.5 min", "result": 71.5921, "unit": "Pa"}, {"measurement": "Storage Modulus Mean", "setting": "fibrin hydrogel; 3 micromolar CypA, 9 min", "result": 72.9987, "unit": "Pa"}, {"measurement": "Storage Modulus Mean", "setting": "fibrin hydrogel; 3 micromolar CypA, 9.5 min", "result": 73.9279, "unit": "Pa"}, {"measurement": "Storage Modulus Mean", "setting": "fibrin hydrogel; 3 micromolar CypA, 10 min", "result": 75.4268, "unit": "Pa"}, {"measurement": "Storage Modulus Mean", "setting": "fibrin hydrogel; 3 micromolar CypA, 11 min", "result": 76.965, "unit": "Pa"}, {"measurement": "Storage Modulus Mean", "setting": "fibrin hydrogel; 3 micromolar CypA, 12 min", "result": 78.6581, "unit": "Pa"}, {"measurement": "Storage Modulus Mean", "setting": "fibrin hydrogel; 3 micromolar CypA, 12.5 min", "result": 79.6539, "unit": "Pa"}, {"measurement": "Storage Modulus Mean", "setting": "fibrin hydrogel; 3 micromolar CypA, 13 min", "result": 80.8472, "unit": "Pa"}, {"measurement": "Storage Modulus Mean", "setting": "fibrin hydrogel; 3 micromolar CypA, 14 min", "result": 81.859, "unit": "Pa"}, {"measurement": "Storage Modulus Mean", "setting": "fibrin hydrogel; 3 micromolar CypA, 15 min", "result": 84.0373, "unit": "Pa"}, {"measurement": "Storage Modulus Mean", "setting": "fibrin hydrogel; 9 micromolar CypA, 3 min", "result": 62.185, "unit": "Pa"}, {"measurement": "Storage Modulus Mean", "setting": "fibrin hydrogel; 9 micromolar CypA, 3.5 min", "result": 63.846, "unit": "Pa"}, {"measurement": "Storage Modulus Mean", "setting": "fibrin hydrogel; 9 micromolar CypA, 4 min", "result": 65.982, "unit": "Pa"}, {"measurement": "Storage Modulus Mean", "setting": "fibrin hydrogel; 9 micromolar CypA, 4.5 min", "result": 68.114, "unit": "Pa"}, {"measurement": "Storage Modulus Mean", "setting": "fibrin hydrogel; 9 micromolar CypA, 5 min", "result": 69.837, "unit": "Pa"}, {"measurement": "Storage Modulus Mean", "setting": "fibrin hydrogel; 9 micromolar CypA, 6 min", "result": 72.811, "unit": "Pa"}, {"measurement": "Storage Modulus Mean", "setting": "fibrin hydrogel; 9 micromolar CypA, 6.5 min", "result": 74.461, "unit": "Pa"}, {"measurement": "Storage Modulus Mean", "setting": "fibrin hydrogel; 9 micromolar CypA, 7 min", "result": 75.619, "unit": "Pa"}, {"measurement": "Storage Modulus Mean", "setting": "fibrin hydrogel; 9 micromolar CypA, 7.5 min", "result": 77.1405, "unit": "Pa"}, {"measurement": "Storage Modulus Mean", "setting": "fibrin hydrogel; 9 micromolar CypA, 8 min", "result": 78.5045, "unit": "Pa"}, {"measurement": "Storage Modulus Mean", "setting": "fibrin hydrogel; 9 micromolar CypA, 8.5 min", "result": 79.81, "unit": "Pa"}, {"measurement": "Storage Modulus Mean", "setting": "fibrin hydrogel; 9 micromolar CypA, 9 min", "result": 80.8145, "unit": "Pa"}, {"measurement": "Storage Modulus Mean", "setting": "fibrin hydrogel; 9 micromolar CypA, 9.5 min", "result": 82.609, "unit": "Pa"}, {"measurement": "Storage Modulus Mean", "setting": "fibrin hydrogel; 9 micromolar CypA, 10 min", "result": 83.584, "unit": "Pa"}, {"measurement": "Storage Modulus Mean", "setting": "fibrin hydrogel; 9 micromolar CypA, 11 min", "result": 86.0735, "unit": "Pa"}, {"measurement": "Storage Modulus Mean", "setting": "fibrin hydrogel; 9 micromolar CypA, 12 min", "result": 88.4775, "unit": "Pa"}, {"measurement": "Storage Modulus Mean", "setting": "fibrin hydrogel; 9 micromolar CypA, 12.5 min", "result": 89.3905, "unit": "Pa"}, {"measurement": "Storage Modulus Mean", "setting": "fibrin hydrogel; 9 micromolar CypA, 13 min", "result": 90.5025, "unit": "Pa"}, {"measurement": "Storage Modulus Mean", "setting": "fibrin hydrogel; 9 micromolar CypA, 14 min", "result": 91.758, "unit": "Pa"}, {"measurement": "Storage Modulus Mean", "setting": "fibrin hydrogel; 9 micromolar CypA, 15 min", "result": 94.897, "unit": "Pa"}, {"measurement": "Storage Modulus Mean", "setting": "fibrin hydrogel; 9 micromolar CypA, 15.5 min", "result": 96.242, "unit": "Pa"}, {"measurement": "Storage Modulus Mean", "setting": "fibrin hydrogel; 20 micromolar CypA, 3 min", "result": 48.845, "unit": "Pa"}, {"measurement": "Storage Modulus Mean", "setting": "fibrin hydrogel; 20 micromolar CypA, 3.5 min", "result": 49.5435, "unit": "Pa"}, {"measurement": "Storage Modulus Mean", "setting": "fibrin hydrogel; 20 micromolar CypA, 4 min", "result": 50.3955, "unit": "Pa"}, {"measurement": "Storage Modulus Mean", "setting": "fibrin hydrogel; 20 micromolar CypA, 4.5 min", "result": 50.963, "unit": "Pa"}, {"measurement": "Storage Modulus Mean", "setting": "fibrin hydrogel; 20 micromolar CypA, 5 min", "result": 51.714, "unit": "Pa"}, {"measurement": "Storage Modulus Mean", "setting": "fibrin hydrogel; 20 micromolar CypA, 6 min", "result": 52.522, "unit": "Pa"}, {"measurement": "Storage Modulus Mean", "setting": "fibrin hydrogel; 20 micromolar CypA, 6.5 min", "result": 53.309, "unit": "Pa"}, {"measurement": "Storage Modulus Mean", "setting": "fibrin hydrogel; 20 micromolar CypA, 7 min", "result": 53.9025, "unit": "Pa"}, {"measurement": "Storage Modulus Mean", "setting": "fibrin hydrogel; 20 micromolar CypA, 7.5 min", "result": 54.3695, "unit": "Pa"}, {"measurement": "Storage Modulus Mean", "setting": "fibrin hydrogel; 20 micromolar CypA, 8 min", "result": 54.713, "unit": "Pa"}, {"measurement": "Storage Modulus Mean", "setting": "fibrin hydrogel; 20 micromolar CypA, 8.5 min", "result": 55.308, "unit": "Pa"}, {"measurement": "Storage Modulus Mean", "setting": "fibrin hydrogel; 20 micromolar CypA, 9 min", "result": 55.0885, "unit": "Pa"}, {"measurement": "Storage Modulus Mean", "setting": "fibrin hydrogel; 20 micromolar CypA, 9.5 min", "result": 56.131, "unit": "Pa"}, {"measurement": "Storage Modulus Mean", "setting": "fibrin hydrogel; 20 micromolar CypA, 10 min", "result": 56.586, "unit": "Pa"}, {"measurement": "Storage Modulus Mean", "setting": "fibrin hydrogel; 20 micromolar CypA, 11 min", "result": 57.3845, "unit": "Pa"}, {"measurement": "Storage Modulus Mean", "setting": "fibrin hydrogel; 20 micromolar CypA, 12 min", "result": 58.3285, "unit": "Pa"}, {"measurement": "Storage Modulus Mean", "setting": "fibrin hydrogel; 20 micromolar CypA, 12.5 min", "result": 58.642, "unit": "Pa"}, {"measurement": "Storage Modulus Mean", "setting": "fibrin hydrogel; 20 micromolar CypA, 14 min", "result": 59.019, "unit": "Pa"}, {"measurement": "Storage Modulus Mean", "setting": "fibrin hydrogel; 20 micromolar CypA, 15 min", "result": 59.9075, "unit": "Pa"}, {"measurement": "Storage Modulus Mean", "setting": "fibrin hydrogel; 20 micromolar CypA, 15.5 min", "result": 60.0285, "unit": "Pa"}]}
